The values below come from patent publication US7307062B2, “Method for treating a mental disorder” (priority 2003, dated 2007).

Each structure is given as a SMILES string. Entries after “also recorded” stand apart in the source; their conditions may differ.

Data set [1] deals with child with autistic disorder. In words: Case history five (autistic disorder). It counts as in vivo, human.
The test system of data set [2] is children with autism. Nature of the data set: Vancomycin and retreatment followed by probiotic fecal enema in children with autism lacking peptostreptococcal species. Particulars: four children with autism.
Data set [3] relates to children with regressive onset autism. In words: Open-label trial of oral vancomycin in children with regressive-onset autism.
Data set [4] deals with child with autistic disorder. In words: Case study one (autistic disorder), successive antimicrobial and probiotic treatments.
Data set [5] concerns child with autistic disorder. In words: Case history CM (autistic disorder). It counts as in vivo, human. The following applies: clarithromycin. The text has this:
[…] They remained hospitalized for 80 days and suffered from significant medical complications due to their premature birth. […] They have severe delays in fine and gross motor skills. Also, severe delays in receptive and expressive language, consistent with their premature birth. […] […] […] Specific behaviors include irritability and temper tantrums, odd meaningless movements, and odd meaningless vocalizations. […] In spite of the placement of tympanostomy tubes […], […] continued to develop recurrent and persistent otis media untila second set of tubes were inserted approximately six months later. […] Head banging and tantrums stopped.

Data set [6] relates to person with psychiatric symptoms. Nature of the data set: Case study four (major depressive disorder, obsessive compulsive disorder, atypical psychosis, Crohn's disease). Type of data set: in vivo, human. The text has this:
patient four was a person whose symptoms were consistent with major depressive disorder, obsessive compulsive disorder, and atypical psychosis. Standard anti-psychotic medications were unsuccessful in treating the symptoms. The person also had severe gastrointestinal symptoms and was subsequently diagnosed with Crohn's disease. The person began treatment with prednisone and mesalamine, a standard therapy for Crohn's disease. […] Behavior problems were absent. […] A few months thereafter, the person experienced an acute psychiatric relapse and was admitted to the hospital. A colonoscopy confirmed active lesions in the right colon consistent with Crohn's disease. Treatment with prednisone and mesalamine was initiated for their Crohn's disease, with the prednisone later tapered to 20 mg/day after several months. […] the person was able to return to high school and completed their junior year with high honors.

The subject of data set [7] is child with Childhood Disintegrative Disorder. In words: Case history two (childhood disintegrative disorder), metronidazole therapy. Type of data set: in vivo, human.
In data set [8] the test system is adolescent with ADHD, bipolar and conduct disorder. In words: Case study three (ADHD, major depressive disorder, bipolar).
Setting [9] is: Wilcoxon Signed Ranks Z=−2.9, p=0.003, baseline vs during therapy.
Setting [10] is: vancomycin 500 mg/day orally, of ten children studied.
[11] abbreviates: metronidazole standard dosage for 17 days.

Take `COCC1=C(C(=O)OC(C)OC(=O)OC(C)C)N2C(=O)[C@@H](NC(=O)/C(=N\OC)c3csc(N)n3)[C@H]2SC1` (stereo partly drawn) [cefpodoxime proxetil]: the “behavior as soon as antibiotics were finished” value in data set [1] (in vivo) is “became more hyper, more easily aggitated, and more aggressive”. Moreover, the “autistic symptoms while taking the antimicrobial” value in data set [1] (prescribed for ear infection, calmness, improved sleep patterns, more signs for communication) is on record as “positive improvement in their autistic symptoms”.
For the compound `CN[C@H](CC(C)C)C(=O)N[C@H]1C(=O)N[C@@H](CC(N)=O)C(=O)N[C@H]2C(=O)N[C@H]3C(=O)N[C@H](C(=O)N[C@H](C(=O)O)c4cc(O)cc(O)c4-c4cc3ccc4O)[C@H](O)c3ccc(c(Cl)c3)Oc3cc2cc(c3O[C@@H]2O[C@H](CO)[C@@H](O)[C@H](O)[C@H]2O[C@H]2C[C@](C)(N)[C@H](O)[C@H](C)O2)Oc2ccc(cc2Cl)[C@H]1O` [vancomycin], in data set [2], the “relapse after discontinuance of antimicrobial therapy” value is recorded as “relapsed within two weeks”. Moreover, in data set [2] (complete absence of peptostreptococcal species in stool), the response to treatment result is given as “responded favorably”. For the same compound, in data set [3] (setting [9]), the “behavior, unblinded analog rating scale, group as a whole” value is given as “improvement” and the “communication, unblinded analog rating scale, group as a whole” value is listed as “improvement”. Moreover, the “subjects with a day of marked lethargy” value in data set [3] (after the hyperactivity period) is reported as “One”. The “basic blood, stool, and urine tests; physical examinations” value in data set [3] (baseline and throughout the study, all children) is “unremarkable”. Further, in data set [3] (two to eight months after discontinuance, in all but one child), the “analog ratings at long-term follow-up” value is “returned towards baseline”. For the same compound, in data set [3] (vancomycin 500 mg/day orally for eight weeks, ten of eleven children scored by blinded psychologist), the “children with improvement during therapy, blinded assessment of coded, paired videotapes” value was 8 of 10 and eight of ten. In addition, in data set [3] (setting [10]), the “children with no change, blinded assessment of coded, paired videotapes” value was “one” and the “children with possible deterioration, blinded assessment of coded, paired videotapes” value is listed as “one”. Further, in data set [3] (within three days of initiating antibiotic treatment), the “duration of period of hyperactivity” value lay in the range of 1 to 4 days. In data set [3] (within three days of initiating antibiotic treatment, eleven children), the “children with a brief period of hyperactivity” value is “six”. The “duration of hyperactivity pattern” value in data set [4] (emerged three days after initiation of vancomycin) is on record as “four”. Also, the duration of lethargy entry in data set [4] (following hyperactivity pattern on vancomycin) is given as “two”. Besides, the “behavior after vancomycin discontinuation” value in data set [4] (shortly after discontinuation, while taking probiotic agents) is “behavioral deterioration was observed”. Moreover, the clinical response entry in data set [4] (vancomycin 125 mg q.i.d., 12-week trial) is “rapid and dramatic clinical improvement”. Besides, the “composite score, Vineland Adaptive Behavior Scales” value in data set [4] (vancomycin 125 mg q.i.d., after 8 weeks) was found to be 19 months. Moreover, the “increase of composite score, Vineland Adaptive Behavior Scales” value in data set [4] (vancomycin 125 mg q.i.d., first 8 weeks of treatment, baseline 11 months) turned out to be 8 months.
On to `CC[C@H]1OC(=O)[C@H](C)[C@@H](O[C@H]2C[C@@](C)(OC)[C@@H](O)[C@H](C)O2)[C@H](C)[C@@H](O[C@@H]2O[C@H](C)C[C@H](N(C)C)[C@H]2O)[C@](C)(OC)C[C@@H](C)C(=O)[C@H](C)[C@@H](O)[C@]1(C)O` [clarithromycin], for which, in data set [5], the “behavior, parental report” value was “became more cooperative and was much calmer”; the “head banging and tantrums, parental report” value was “stopped”.
Turning to `Cc1ncc([N+](=O)[O-])n1CCO` [metronidazole], in data set [6] (after first metronidazole course), the “time of first deterioration in behavior” value is given as “two months following the discontinuance”. For the same compound, the “clinical response, first course” value in data set [6] (metronidazole 250 mg t.i.d. six weeks, with prednisone and mesalamine) was “rapid improvement in attitude, mood and rebounded academically”. Also, in data set [6] (metronidazole 500 mg t.i.d. for 30 days, within three weeks), the “clinical response, second course” value was “dramatic improvement in their psychiatric symptoms”. In addition, the “Social behavior, After Metronidazole” value in data set [7] (after discontinuation, on Lactobacillus Acidophilus GG) is given as “Reverted to baseline”. Also, the “Attitude/State of Mind, After Metronidazole” value in data set [7] (after discontinuation, on Lactobacillus Acidophilus GG 20 billion cells per day) is “Reverted to baseline”. Besides, the “Speech, After Metronidazole” value was “Initially regressed,” in data set [7] (after discontinuation, on Lactobacillus Acidophilus GG, logic and coherence of speech); “Reverted to baseline” in data set [7] (after discontinuation, on Lactobacillus Acidophilus GG, voice quality). Also, the “Ability: Physical or Mental, After Metronidazole” value in data set [7] (after discontinuation, on Lactobacillus Acidophilus GG, sleep) is on record as “Remained somewhat”. Moreover, in data set [7] (setting [11]), the “Ability: Physical or Mental, During Metronidazole” value is listed as “Fell asleep quickly”. Moreover, in data set [7] (setting [11]), the “Attitude/State of Mind, During Metronidazole” value is “Aware of surroundings; also recorded: Relaxed and calm; also recorded: Happy, pleasant”. Moreover, the “Social behavior, During Metronidazole” value in data set [7] (metronidazole standard dosage for 17 days, aggression towards little brother) is on record as “No aggression towards”; in data set [7] (metronidazole standard dosage for 17 days, peer interaction and play skills) it was “Marked improvement in”. For the same compound, the “Speech, During Metronidazole” value in data set [7] (metronidazole standard dosage for 17 days, logic and coherence of speech) is reported as “Speech on topic, more”; in data set [7] (metronidazole standard dosage for 17 days, social communication), “Initiated and”; in data set [7] (metronidazole standard dosage for 17 days, voice quality), “Voice normal, natural,”. In addition, the “positive gains after discontinuation” value in data set [7] (within a week after the discontinuation of metronidazole) is “began to deteriorate”. Moreover, the “aggressive and hyperactive behaviors” value in data set [4] (metronidazole 250 mg t.i.d. for 21 days, end of treatment) is “substantially reduced”. Also, the “rating of behavior problems previously severe in degree” value in data set [8] (after two months of metronidazole treatment) is “slight in degree or completely resolved”. The “behavior during first week of treatment” value in data set [8] (metronidazole 500 mg b.i.d.) was “highly agitated”. Further, the behavior after discontinuation entry in data set [8] (two weeks after metronidazole therapy was discontinued) is on record as “behavior deteriorated”.
